# Reference: ChEMBL document CHEMBL2311440, “Inhibitors of HIV-1 attachment. Part 8: the effect of C7-heteroaryl substitution on the potency, and in vitro and in vivo profiles of indole-based inhibitors” (Bioorg Med Chem Lett, 2013)
# Legend:
# [1] = Oral bioavailability in rat at 5 mg/kg; format: ADME, organism-based; conditions: in vivo
# [2] = Cmax in rat at 5 mg/kg, po; format: ADME, organism-based; set-up: dose 5 mg/kg, route oral; conditions: in vivo
# [3] = Half life in human liver microsomes; format: ADME, Microsome
# [4] = Cytotoxicity against human HeLa CD4+ CCR5+ cells after 6 days by XTT assay; format: cell-based
# [5] = Antiviral activity against T-tropic HIV1 BRU virus by cell culture based assay; format: functional, Human immunodeficiency virus type 1 (BRU ISOLATE); conditions: Human immunodeficiency virus 1
# [6] = Half life in rat at 1 mg/kg, iv; format: ADME, organism-based; set-up: dose 1 mg/kg, route intravenous; conditions: in vivo
# [7] = test system: Human immunodeficiency virus 1; assay: Antiviral activity against HIV1 JRFL pseudotyped virus infected in HeLa CD4+ CCR5+ cells by single-cycle viral infectivity assay; format: functional, organism-based; conditions: Human immunodeficiency virus 1, JRFL
# [8] = Permeability across human Caco2 cells at pH 6.5; format: ADME, cell-based; conditions: Caco-2, pH 6.5, read-out: permeability
# [9] = Clearance in rat at 1 mg/kg, iv; format: ADME, organism-based; set-up: dose 1 mg/kg, route intravenous; conditions: in vivo
# [10] = test system: Human immunodeficiency virus 1; assay: Antiviral activity against T-tropic HIV1 NL4-3 virus by cell culture based assay; format: functional, organism-based; conditions: Human immunodeficiency virus 1, NL4-3
# [11] = test system: Human immunodeficiency virus 1; assay: Antiviral activity against M-tropic HIV1 Bal virus by cell culture based assay; format: functional, organism-based; conditions: Human immunodeficiency virus 1, Bal
# [12] = Safety index, ratio fo CC50 for human HeLa CD4+ CCR5+ cells to EC50 for HIV1 JRFL; format: toxicity; conditions: read-out: Ratio CC50/EC50
half-life [3] [min],EC50 [7] [nM],Papp [8] [×10⁻⁶ cm/s],Structure (SMILES),CC50 at 144 h [4] [µM],also measured
> 200,0.08,1.7,O=C(C(=O)N1CCN(C(=O)c2ccccc2)CC1)c1c[nH]c2c(-c3nn[nH]n3)ccc(F)c12,245,bioavailability [1]: 2.3%; Cmax [2]: 95 ng/mL; EC50 [5]: 6.38 nM; half-life [6]: 67 min; clearance [9]: 3.1 mL/min/kg; EC50 [10]: 9.41 nM; EC50 [11]: 0.37 nM
–,3.55,–,COc1nc(-c2ccc(F)c3c(C(=O)C(=O)N4CCN(C(=O)c5ccccc5)CC4)c[nH]c23)no1,44,–
–,0.05,–,O=C(C(=O)N1CCN(C(=O)c2ccccc2)CC1)c1c[nH]c2c(-c3ncco3)ccc(F)c12,192,–
–,0.04,–,C[C@@H]1CN(C(=O)c2ccccc2)CCN1C(=O)C(=O)c1c[nH]c2c(-c3ncon3)ccc(F)c12,125,–
–,0.06,–,O=C(C(=O)N1CCN(C(=O)c2ccccc2)CC1)c1c[nH]c2c(-c3cccnc3)ccc(F)c12,10,–
10,0.05,–,O=C(C(=O)N1CCN(C(=O)c2ccccc2)CC1)c1c[nH]c2c(-c3nnco3)ccc(F)c12,> 300,–
25,0.16,8.9,Cc1nnc(-c2ccc(F)c3c(C(=O)C(=O)N4CCN(C(=O)c5ccccc5)CC4)c[nH]c23)[nH]1,159,–
–,0.06,–,Cc1nc(-c2ccc(F)c3c(C(=O)C(=O)N4CCN(C(=O)c5ccccc5)CC4)c[nH]c23)no1,226,–
–,0.04,–,COc1ccc(-c2ccc(F)c3c(C(=O)C(=O)N4CCN(C(=O)c5ccccc5)CC4)c[nH]c23)cc1,21,–
–,0.0067,–,O=C(C(=O)N1CCN(C(=O)c2ccccc2)CC1)c1c[nH]c2c(-c3nccs3)ccc(F)c12,23,–
–,0.01,–,O=C(C(=O)N1CCN(C(=O)c2ccccc2)CC1)c1c[nH]c2c(-c3ccsc3)ccc(F)c12,27,–
–,0.04,–,CNc1nc(-c2ccc(F)c3c(C(=O)C(=O)N4CCN(C(=O)c5ccccc5)CC4)c[nH]c23)no1,26,–
–,0.094,–,Cc1noc(-c2ccc(F)c3c(C(=O)C(=O)N4CCN(C(=O)c5ccccc5)CC4)c[nH]c23)n1,> 300,–
16,0.16,14.8,COc1ccc(-c2ncon2)c2[nH]cc(C(=O)C(=O)N3CCN(C(=O)c4ccccc4)CC3)c12,22,–
–,0.53,–,O=C(C(=O)N1CCN(C(=O)c2ccccc2)CC1)c1c[nH]c2c(-c3nc4ccccc4[nH]3)ccc(F)c12,11,–
> 100,1.24,–,O=C(C(=O)N1CCN(C(=O)c2ccccc2)CC1)c1c[nH]c2cccc(F)c12,> 300,EC50 [5]: 90 nM; EC50 [10]: 1500 nM; EC50 [11]: 700 nM
16,0.06,3.7,O=C(C(=O)N1CCN(C(=O)c2ccccc2)CC1)c1c[nH]c2c(-c3cnc[nH]3)ccc(F)c12,> 300,–
–,0.43,–,O=C(C(=O)N1CCN(C(=O)c2ccccc2)CC1)c1c[nH]c2c(-c3ccccc3)ccc(F)c12,6.8,–
–,0.1,–,NC(=O)c1nc(-c2ccc(F)c3c(C(=O)C(=O)N4CCN(C(=O)c5ccccc5)CC4)c[nH]c23)no1,154,–
–,0.06,–,O=C(C(=O)N1CCN(C(=O)c2ccccc2)CC1)c1c[nH]c2c(-c3cccs3)ccc(F)c12,5.3,–
17,0.05,> 30,O=C(C(=O)N1CCN(C(=O)c2ccccc2)CC1)c1c[nH]c2c(-c3ncon3)ccc(F)c12,74,bioavailability [1]: 89%; Cmax [2]: 2610 ng/mL; EC50 [5]: 3.38 nM; half-life [6]: 120 min; clearance [9]: 3.9 mL/min/kg; selectivity ratio [12]: 1500; EC50 [10]: 8.66 nM; EC50 [11]: 7.61 nM
2.9,0.0054,12.2,O=C(C(=O)N1CCN(C(=O)c2ccccc2)CC1)c1c[nH]c2c(-c3cnco3)ccc(F)c12,> 300,bioavailability [1]: 47%; Cmax [2]: 444 ng/mL; half-life [6]: 65 min; clearance [9]: 17 mL/min/kg
–,0.12,–,O=C(C(=O)N1CCN(C(=O)c2ccccc2)CC1)c1c[nH]c2c(-c3ccccn3)ccc(F)c12,17,–
–,0.1,–,CC(=O)Nc1nc(-c2ccc(F)c3c(C(=O)C(=O)N4CCN(C(=O)c5ccccc5)CC4)c[nH]c23)no1,229,–
–,0.88,–,O=C(C(=O)N1CCN(C(=O)c2ccccc2)CC1)c1c[nH]c2c(-c3nc4ccccc4o3)ccc(F)c12,27,–
32,0.03,1.9,O=C(C(=O)N1CCN(C(=O)c2ccccc2)CC1)c1c[nH]c2c(-c3nnc[nH]3)ccc(F)c12,199,bioavailability [1]: 14%; Cmax [2]: 369 ng/mL; half-life [6]: 187 min; clearance [9]: 3.7 mL/min/kg
–,153,–,O=C(C(=O)N1CCN(C(=O)c2ccccc2)CC1)c1c[nH]c2ccccc12,275,–
> 100,0.07,< 1.5,C[C@@H]1CN(C(=O)c2ccccc2)CCN1C(=O)C(=O)c1c[nH]c2c(-c3nn[nH]n3)ccc(F)c12,> 300,–
–,0.3,–,CN(C)c1nc(-c2ccc(F)c3c(C(=O)C(=O)N4CCN(C(=O)c5ccccc5)CC4)c[nH]c23)no1,23,–
17,0.0082,6.9,Nc1nc(-c2ccc(F)c3c(C(=O)C(=O)N4CCN(C(=O)c5ccccc5)CC4)c[nH]c23)no1,43,–
